Data published in US10456358B2, “Isoxazoline compositions and use thereof in the prevention or treatment of parasite infestations in animals” (Intervet Inc., priority 2013, dated 2019).

Key:
[1] = Tolerability in hens in the efficacy study; type: in vivo; conditions: 0.5-2 mg fluralaner/kg BW via medicated drinking water
Description: Groups A-D (n=6) were treated with doses of 2, 1 and 0.5 mg fluralaner/kg BW once or 1 mg fluralaner/kg BW twice (0.5 mg/kg BW on 2 occasions).
On D0 (group D additionally on D7), the hens in groups A-D received fluralaner via medicated drinking water. Group E received un-medicated drinking water ad libitum.

[2] = Technological study: fluralaner concentration at drinking nipples of a poultry house water system; type: physicochemical
Description: The study was conducted in a commercial poultry house for approximately 36000 replacement chickens with 4 batteries each with 3 levels. 4 PVC water dead-end pipes, (78 m long) supplied water for each battery.
Drinking nipples (Big Dutchman types “screw nipples” and “Top”, equipped with a single-arm plastic drip cup) were fitted to the water pipes. In this facility the delivery of the concentrated composition to the drinking nipples using both a dosing pump system and a medication tank was evaluated. • a) Dosing Pump • The dosing pump and its stock solution container were installed in a water hose coming from the water supply pipe and ending in a water tank that was metered for […]. • The dosing pump was set for 5% injection rate. The stock solution container was filled with a total of 8.8 L (175×0.05 [5%]). • Once the container was filled, the calculated volume of 193 mL of the concentrated composition was poured into the container and subsequently stirred. • The dosing pump was connected to the water distribution pipe and the pipe system filled with the medicated water. • b) Medication Tank • The medication tank was filled with 175 L of tap water. • The calculated volume of 193 mL of the concentrated composition was poured into the container and subsequently stirred. • The medication tank was connected to the water distribution pipe and the pipe system filled with the medicated water.
No animals were present in the cages. Therefore the water lines were opened every 10 min to mimic a continuous (intermittent) drinking water flow. At each draining 7.3 L of medicated water was allowed to drain at the dead-end side of the pipe.
Samples of medicated water was taken from 6 drinking nipples: the first and last drinking nipple in a drinker line, and from 4 drinking nipples having an equal distance at pre-defined time points, with a maximum of 4 h and analysed for fluralaner concentration.

Cc1cc(C2=NOC(c3cc(Cl)cc(Cl)c3)(C(F)(F)F)C2)ccc1C(=O)NCC(=O)NCC(F)(F)F (centres unmarked) [fluralaner, 4-[5-(3,5-Dichlorophenyl)-5-trifluoromethyl-4,5-dihydroisoxazol-3-yl]-2-methyl-N-[(2,2,2-trifluoro-ethylcarbamoyl)-methyl]-benzamide]
tolerability [1]: well tolerated
Deviation of fluralaner concentration at the drinking nipple from nominal concentration (percent) ([2]; Dosing pump system, Nipple 1, T 30 min): −10%
Deviation of fluralaner concentration at the drinking nipple from nominal concentration (percent) ([2]; Dosing pump system, Nipple 1, T 60 min): −10%
Deviation of fluralaner concentration at the drinking nipple from nominal concentration (percent) ([2]; Dosing pump system, Nipple 1, T 120 min): −9%
Deviation of fluralaner concentration at the drinking nipple from nominal concentration (percent) ([2]; Dosing pump system, Nipple 1, T 180 min): −9%
Deviation of fluralaner concentration at the drinking nipple from nominal concentration (percent) ([2]; Dosing pump system, Nipple 1, T 240 min): −9%
Deviation of fluralaner concentration at the drinking nipple from nominal concentration (percent) ([2]; Dosing pump system, Nipple 2, T 30 min): −9%
Deviation of fluralaner concentration at the drinking nipple from nominal concentration (percent) ([2]; Dosing pump system, Nipple 2, T 60 min): −14%
Deviation of fluralaner concentration at the drinking nipple from nominal concentration (percent) ([2]; Dosing pump system, Nipple 2, T 120 min): −12%
Deviation of fluralaner concentration at the drinking nipple from nominal concentration (percent) ([2]; Dosing pump system, Nipple 2, T 180 min): −9%
Deviation of fluralaner concentration at the drinking nipple from nominal concentration (percent) ([2]; Dosing pump system, Nipple 2, T 240 min): −9%
Deviation of fluralaner concentration at the drinking nipple from nominal concentration (percent) ([2]; Dosing pump system, Nipple 3, T 30 min): −9%
Deviation of fluralaner concentration at the drinking nipple from nominal concentration (percent) ([2]; Dosing pump system, Nipple 3, T 60 min): −10%
Deviation of fluralaner concentration at the drinking nipple from nominal concentration (percent) ([2]; Dosing pump system, Nipple 3, T 120 min): −10%
Deviation of fluralaner concentration at the drinking nipple from nominal concentration (percent) ([2]; Dosing pump system, Nipple 3, T 180 min): −14%
Deviation of fluralaner concentration at the drinking nipple from nominal concentration (percent) ([2]; Dosing pump system, Nipple 3, T 240 min): −14%
Deviation of fluralaner concentration at the drinking nipple from nominal concentration (percent) ([2]; Dosing pump system, Nipple 4, T 30 min): −12%
Deviation of fluralaner concentration at the drinking nipple from nominal concentration (percent) ([2]; Dosing pump system, Nipple 4, T 60 min): −16%
Deviation of fluralaner concentration at the drinking nipple from nominal concentration (percent) ([2]; Dosing pump system, Nipple 4, T 120 min): −14%
Deviation of fluralaner concentration at the drinking nipple from nominal concentration (percent) ([2]; Dosing pump system, Nipple 4, T 180 min): −10%
Deviation of fluralaner concentration at the drinking nipple from nominal concentration (percent) ([2]; Dosing pump system, Nipple 4, T 240 min): −10%
Deviation of fluralaner concentration at the drinking nipple from nominal concentration (percent) ([2]; Dosing pump system, Nipple 5, T 30 min): −12%
Deviation of fluralaner concentration at the drinking nipple from nominal concentration (percent) ([2]; Dosing pump system, Nipple 5, T 60 min): −10%
Deviation of fluralaner concentration at the drinking nipple from nominal concentration (percent) ([2]; Dosing pump system, Nipple 5, T 120 min): −11%
Deviation of fluralaner concentration at the drinking nipple from nominal concentration (percent) ([2]; Dosing pump system, Nipple 5, T 180 min): −10%
Deviation of fluralaner concentration at the drinking nipple from nominal concentration (percent) ([2]; Dosing pump system, Nipple 5, T 240 min): −10%
Deviation of fluralaner concentration at the drinking nipple from nominal concentration (percent) ([2]; Dosing pump system, Nipple 6, T 30 min): −26%
Deviation of fluralaner concentration at the drinking nipple from nominal concentration (percent) ([2]; Dosing pump system, Nipple 6, T 60 min): −10%
Deviation of fluralaner concentration at the drinking nipple from nominal concentration (percent) ([2]; Dosing pump system, Nipple 6, T 120 min): −11%
Deviation of fluralaner concentration at the drinking nipple from nominal concentration (percent) ([2]; Dosing pump system, Nipple 6, T 180 min): −11%
Deviation of fluralaner concentration at the drinking nipple from nominal concentration (percent) ([2]; Dosing pump system, Nipple 6, T 240 min): −10%
Deviation of fluralaner concentration at the drinking nipple from nominal concentration (percent) ([2]; Medication tank system, Nipple 1, T 30 min): −5%
Deviation of fluralaner concentration at the drinking nipple from nominal concentration (percent) ([2]; Medication tank system, Nipple 1, T 60 min): −4%
Deviation of fluralaner concentration at the drinking nipple from nominal concentration (percent) ([2]; Medication tank system, Nipple 1, T 120 min): −4%
Deviation of fluralaner concentration at the drinking nipple from nominal concentration (percent) ([2]; Medication tank system, Nipple 1, T 180 min): −5%
Deviation of fluralaner concentration at the drinking nipple from nominal concentration (percent) ([2]; Medication tank system, Nipple 1, T 240 min): −10%
Deviation of fluralaner concentration at the drinking nipple from nominal concentration (percent) ([2]; Medication tank system, Nipple 2, T 30 min): −7%
Deviation of fluralaner concentration at the drinking nipple from nominal concentration (percent) ([2]; Medication tank system, Nipple 2, T 60 min): −5%
Deviation of fluralaner concentration at the drinking nipple from nominal concentration (percent) ([2]; Medication tank system, Nipple 2, T 120 min): −4%
Deviation of fluralaner concentration at the drinking nipple from nominal concentration (percent) ([2]; Medication tank system, Nipple 2, T 180 min): −5%
Deviation of fluralaner concentration at the drinking nipple from nominal concentration (percent) ([2]; Medication tank system, Nipple 2, T 240 min): −4%
Deviation of fluralaner concentration at the drinking nipple from nominal concentration (percent) ([2]; Medication tank system, Nipple 3, T 30 min): −5%
Deviation of fluralaner concentration at the drinking nipple from nominal concentration (percent) ([2]; Medication tank system, Nipple 3, T 60 min): −4%
Deviation of fluralaner concentration at the drinking nipple from nominal concentration (percent) ([2]; Medication tank system, Nipple 3, T 120 min): −4%
Deviation of fluralaner concentration at the drinking nipple from nominal concentration (percent) ([2]; Medication tank system, Nipple 3, T 180 min): −4%
Deviation of fluralaner concentration at the drinking nipple from nominal concentration (percent) ([2]; Medication tank system, Nipple 3, T 240 min): −4%
Deviation of fluralaner concentration at the drinking nipple from nominal concentration (percent) ([2]; Medication tank system, Nipple 4, T 30 min): −6%
Deviation of fluralaner concentration at the drinking nipple from nominal concentration (percent) ([2]; Medication tank system, Nipple 4, T 60 min): −5%
Deviation of fluralaner concentration at the drinking nipple from nominal concentration (percent) ([2]; Medication tank system, Nipple 4, T 120 min): −4%
Deviation of fluralaner concentration at the drinking nipple from nominal concentration (percent) ([2]; Medication tank system, Nipple 4, T 180 min): −4%
Deviation of fluralaner concentration at the drinking nipple from nominal concentration (percent) ([2]; Medication tank system, Nipple 4, T 240 min): −3%
Deviation of fluralaner concentration at the drinking nipple from nominal concentration (percent) ([2]; Medication tank system, Nipple 5, T 30 min): −8%
Deviation of fluralaner concentration at the drinking nipple from nominal concentration (percent) ([2]; Medication tank system, Nipple 5, T 60 min): −4%
Deviation of fluralaner concentration at the drinking nipple from nominal concentration (percent) ([2]; Medication tank system, Nipple 5, T 120 min): −4%
Deviation of fluralaner concentration at the drinking nipple from nominal concentration (percent) ([2]; Medication tank system, Nipple 5, T 180 min): −4%
Deviation of fluralaner concentration at the drinking nipple from nominal concentration (percent) ([2]; Medication tank system, Nipple 5, T 240 min): −6%
Deviation of fluralaner concentration at the drinking nipple from nominal concentration (percent) ([2]; Medication tank system, Nipple 6, T 30 min): −6%
Deviation of fluralaner concentration at the drinking nipple from nominal concentration (percent) ([2]; Medication tank system, Nipple 6, T 60 min): −6%
Deviation of fluralaner concentration at the drinking nipple from nominal concentration (percent) ([2]; Medication tank system, Nipple 6, T 120 min): −4%
Deviation of fluralaner concentration at the drinking nipple from nominal concentration (percent) ([2]; Medication tank system, Nipple 6, T 180 min): −5%
Deviation of fluralaner concentration at the drinking nipple from nominal concentration (percent) ([2]; Medication tank system, Nipple 6, T 240 min): −4%
fluralaner concentration in the drinking water over time and along the drinking water line ([2]; up to 4 hours, medication tank and dosing pump): remains constant over time and along the drinking water line
